The text below walks through data of US20100129289A1, “COMPOSITIONS AND METHODS FOR THE DETECTION OF VULNERABLE PLAQUE” (THE OHIO STATE UNIVERSITY RESEARCH FOUNDATION, priority 2006, published 2010).

The subject of assay [1] is WHHL rabbit aortic tissue (intima). Briefly: Resected WHHL rabbit aortic tissue peptide binding assay. The conditions noted are these: for positive binding / staining on WHHL tissue samples: five to seven tissue samples per peptide; for staining on WHHL tissue, original versus randomized sequence: one experiment on a WHHL rabbit, FIGS. 14 and 15; for staining on WHHL aortic tissue: overall statement across experiments; for staining of corresponding WHHL tissue samples: sections FIG. 10(c) (peptide 4) and FIG. 11(a) (peptide 3); for staining of individual WHHL tissue sections: sections FIG. 10(d) (peptide 4) and FIG. 11(b) (peptide 3). As to the method:
(§1) Experiments were performed to determine if the synthesized peptides could bind to the intima of the WHHL (diseased) rabbits but not to the NZW (control) rabbits. The following procedure is shown schematically in FIG. 2. The animals were anesthetized, injected with 0.7-1.0 mL heparin, and perfused with 200-300 mL Hanks buffered salt solution containing 1% BSA. A segment of the aorta comprising the aortic arch to the bifurcation of the aorta in the lower abdomen was removed and placed in a buffer solution of Hanks w/1% BSA and 1% protease inhibitor cocktail (Sigma, P8340). The aorta segments were opened longitudinally and sliced into individual pieces approximately 1-2 mm^2 each. These pieces were then placed into tubes containing individual peptides at a concentration of 5 μg/mL in the same buffer solution described above.
(§2) The tissue sections were incubated with individual peptides for 45-60 minutes at room temperature. Samples were washed 3× with PBS followed by incubation with SA-HRP or anti-FLAG-HRP in the same buffer for 45-60 minutes at room temperature. After another 3× washing, the samples were incubated with DAB for 30 minutes in the same buffer. After a final round of washing, tissue samples were imaged with a dissecting microscope and analyzed for the presence of brown staining on the endothelial surface. […] Some tissue sections received no peptide incubation; rather they were exposed only to SA-HRP or anti-FLAG-HRP as a control.

For a further assay, the system named is lipid-loaded HAECs. Briefly: Lipid-loaded HAEC peptide binding assay. Format: cell-based, human. The conditions noted are these: peptide 1, 5 or 100 μg/mL; SA-HRP or anti-FLAG-HRP with DAB. As to the method: Human aortic endothelial cells (HAECs) were loaded with acetylated low-density lipoprotein as described herein. Peptide binding assays were performed 24 hours after the third lipid-loading of the cells. Control cells grown in the standard media without added lipid were cultured for the same amount of time as the lipid-loaded HAECs.
The general procedure for the peptide binding assays was conducted as follows (see FIG. 1). Variations on this method will be discussed as well. Both the lipid- and non-lipid-loaded cells were imaged prior to the assays to verify morphological differences between the two conditions of the cells. The media was aspirated and cells were washed 3× with cold wash buffer (PBS w/Ca^2+, […] with 2% FBS), followed by a 5 minute incubation on ice to minimize internalization of peptides. Cold blocking buffer (PBS w/1% BSA) was added to the cells for 15 minutes to prevent nonspecific binding. Peptides were then added to the cells in cold blocking buffer at 1, 5, or 100 μg/mL and incubated for 1 hour on ice. Following incubation, cells were washed 3×, and either streptavidin horseradish peroxidase (SA-HRP) or anti-FLAG horseradish peroxidase (anti-FLAG-HRP) was added to the cells in cold blocking buffer at the recommended concentrations provided by the manufacturers. […]

Assay [2] relates to atherosclerotic lesion endothelium of ApoE knockout mice. The conditions noted are these: mouse; cited from earlier work.
Assay [3] concerns frozen WHHL aorta tissue sections. Briefly: Direct staining on frozen WHHL rabbit tissue sections. Format: binding. The conditions noted are these: for staining of frozen WHHL aorta tissue sections: peptide 1 μg/mL, 4 μm sections, FIG. 22. As to the method:
Some of the resected WHHL and NZW aortic arch tissues were frozen and sectioned into 4 μm slices. Binding assays were performed on these frozen sections in a similar manner to that described herein. Sections were thawed and incubated with blocking buffer (Hanks w/1% BSA) for 30 minutes. Individual peptides were added to the slides in blocking buffer at a concentration of 1 μg/mL. After 45 minutes of incubation, the slides were washed and either SA-HRP or anti-FLAG-HRP, depending on the modification of the peptides, was added at the recommended concentration and allowed to incubate for 1 hour. The slides were washed again, and the DAB substrate was added and incubated for 30 minutes while looking for brown color development. After washing away the DAB, the tissue samples were fixed with 10% buffered formalin for 10 minutes followed by counterstaining with hemotoxylin. The slides were then mounted with permount and glass coverslips for imaging. The standard SA-HRP and anti-FLAG-HRP controls were performed for these experiments as well.

The test system of assay [4] is NZW rabbit aortic tissue (intima). Briefly: Resected NZW rabbit aortic tissue peptide binding assay. The conditions noted are these: for staining / binding on NZW tissue: peptide 9 at 1× concentration, FIG. 12. On the procedure: as §1, §2
For assay [5], the system named is aorta of ApoE knockout mice. Briefly: ApoE knockout mice in vivo peptide binding assay. More on the design: species or system mouse. The conditions noted are these: 1 hour circulation, SA-HRP or anti-FLAG-HRP with DAB. On the procedure:
In the peptide binding assays, individual peptides are injected into an anesthetized mouse and allowed to circulate in vivo for 1 hour. Note that this is different from the WHHL/NZW binding assays where the aorta is first resected and then incubated with peptide. The animal is then fixed via cardiac perfusion with 4% formaldehyde, and the aorta is removed to test for binding of the peptide. The detection assay is the same assay described herein: either SA-HRP or anti-FLAG-HRP is added to the solution containing the resected tissue, followed by the addition of the DAB substrate, after which the tissue samples are sectioned and imaged.

The subject of assay [6] is WHHL rabbit aortic tissue (intima). Kind of assay: Resected WHHL rabbit aortic tissue peptide binding assay.
Setting [7] is: 10× concentration (˜100 μg/mL) versus 1×, FIG. 13.

Entries after “also recorded” stand apart in the source; their conditions may differ. Ends that are not written are not given here. * marks the point of attachment. Biotin = O=C1N[C@H]2[C@H](CS[C@H]2CCCCC(=O)*)N1

Regarding APHYLKTAPPPN [Peptide 28], the “positive binding / staining on WHHL tissue samples” value (“positive binding / staining” below) in assay [1] (Exp219 (FIG. 20)) was “some staining”.
Regarding Biotin-PPEEWSPVTHLL [Peptide 3R], the “staining on WHHL tissue, original versus randomized sequence” value in assay [1] was “much less staining compared to the original sequences”.
On the same count and under the same terms, in the case of Biotin-RNPGYTYHIALG [Peptide 4R] it was “much less staining compared to the original sequences”.
Consider CDSIKWPNC [Peptide 23], for which the “binding to lipid-loaded HAECs (brown staining)” value with lipid-loaded HAECs is recorded as “negative result for binding”.
As to CHPASSPQC [Peptide 34], in assay [1] (Exp223 (FIG. 21)), the “positive binding / staining” value is listed as “some staining”.
On to CKQSFEKSC [Peptide 1], for which the “positive binding / staining” value in assay [1] (Exp201 (FIG. 18)) is “showed staining on one tissue sample”.
CKQSPPSMC [Peptide 14]: the “positive binding / staining” value in assay [1] (Exp217 (FIG. 19)) is “stained”.
As for CKSDANSHC [Peptide 2], in assay [1] (Exp217 (FIG. 19)), the “positive binding / staining” value is on record as “stained”.
As for “CNHRYMQMC [Peptide 11, reference compound]”, the “positive binding / staining” value in assay [1] (Exp201 (FIG. 18)) is on record as “showed staining on one tissue sample”. Besides, the “binding to atherosclerotic lesion endothelium of ApoE knockout mice in vivo” value in assay [2] is “shown to bind”.
For CNKNSIPHC [Peptide 20], the “positive binding / staining” value in assay [1] (Exp201 (FIG. 18)) was “showed staining on one tissue sample”.
For the substance CVMPGLKNC [Peptide 10], the “positive binding / staining” value in assay [1] (Exp201 (FIG. 18)) is listed as “showed staining on one tissue sample”.
Take “ILTHEHTLPKQ-FLAG (ILTHEHTLPKQ-{FLAG}) [Peptide 9R]”: the “staining of frozen WHHL aorta tissue sections” value in assay [3] is recorded as “no staining; also recorded: no binding”.
In the case of KSLSRHDHIHHH [Peptide 16], in assay [1] (Exp217 (FIG. 19)), the “positive binding / staining” value was “stained”.
For the substance NADNQMTWRHVL [Peptide 38], in assay [1] (Exp223 (FIG. 21)), the “positive binding / staining” value is given as “some staining”.
Still for that read-out and setting: then NLTSLTQGSAML [Peptide 39], with “some staining”.
For “SIGYPLP [Peptide 13, reference compound]”, the “positive binding / staining” value in assay [1] (Exp217 (FIG. 19)) is “stained”.
In the case of SSLPAPPWPLRG [Peptide 6], the results for the “positive binding / staining” value in assay [1] (Exp201 (FIG. 18)) and in assay [1] (Exp217 (FIG. 19)) were “showed staining on one tissue sample” and “slight staining”, respectively.
Consider SSSKMQAAHQLP [Peptide 24], for which the results for the “positive binding / staining” value in assay [1] (Exp201 (FIG. 18)) and in assay [1] (Exp219 (FIG. 20)) were “showed staining on one tissue sample” and “some staining”, respectively.
For TAPHHSTPANVP [Peptide 17], the “binding to lipid-loaded HAECs (brown staining)” value with lipid-loaded HAECs was “negative result for binding”.
Regarding TDTTMGQVHRHP [Peptide 37], the “positive binding / staining” value in assay [1] (Exp223 (FIG. 21)) was “some staining”.
With TPLEVHPESLPW [Peptide 3], in assay [1], the “staining on WHHL aortic tissue” value is on record as “above-average reproducible staining”; the “staining of corresponding WHHL tissue samples” value is reported as “very little, if any, brown staining”; the “staining of individual WHHL tissue sections” value is given as “best staining”. The “staining / binding on NZW tissue” value in assay [4] was “no binding”.
Regarding TQTPIKHHLLKE [Peptide 9], the “binding to regions of plaque, dependence on dose” value in assay [1] (WHHL aortic tissue) was “dose-dependent manner”. In assay [1] (histological sections, Hoechst stain, 400×, FIG. 16), the “location of staining in sectioned WHHL aorta” value is given as “localized to the intimal layer, with no infiltration into the plaque region; also recorded: localized to the intimal layer of the aorta”. The “staining over plaque versus non-plaque regions of WHHL aorta” value in assay [1] (histological sections, FIG. 17) is given as “present on intima covering regions of plaque but not over non-plaque regions; also recorded: seen over plaque-rich regions”. Further, in assay [1], the “staining on WHHL tissue, original versus randomized sequence” value is recorded as “stronger than the staining seen from peptide 9R” and the “staining on WHHL aortic tissue” value was “consistently shows staining”. Also, in assay [3] (frozen WHHL and NZW tissue), the “binding to frozen tissue samples” value is “showed binding”. The “staining of frozen WHHL aorta tissue sections” value in assay [3] is on record as “strong brown staining on the surface; also recorded: stains the intimal surface”. Also, the “binding to aorta after in vivo circulation of peptide” value in assay [5] was “did not yield positive results”. Also, the “staining on NZW tissue at 10-fold increased concentration” value in assay [4] (setting [7]) is “remains the same as the staining seen with the 1× concentration”. In assay [4], the “staining / binding on NZW tissue” value is “some slight staining; also recorded: light, distinct staining pattern; also recorded: slight background staining”. Besides, in assay [6] (1× concentration (˜10 μg/mL), FIGS. 8 and 9, two WHHL rabbits), the “staining on WHHL aortic tissue relative to anti-FLAG-HRP control sections” value was “more total staining, and the staining is very distinct”. Also, the “staining on WHHL tissue at 10-fold increased concentration” value in assay [6] (setting [7]) is “increases dramatically”.
For TSPQTKDC [Peptide 7], the figures for the “positive binding / staining” value in assay [1] (Exp201 (FIG. 18)) and in assay [1] (Exp217 (FIG. 19)) were “showed staining on one tissue sample” and “slight staining”, respectively. For the same substance, the “binding to aorta after in vivo circulation of peptide” value in assay [5] is reported as “did not yield positive results”.
YITPYAHLRGGN [Peptide 4]: in assay [1], the “staining on WHHL aortic tissue” value is “above-average reproducible staining”; the “staining of corresponding WHHL tissue samples” value is reported as “very little, if any, brown staining”; the “staining of individual WHHL tissue sections” value is “good staining”. The “staining / binding on NZW tissue” value in assay [4] is “no binding”.
